Tested on: Influenza-Viren
Assay: own studies in mice infected with influenza viruses (prophylaxis and therapy of virus infection, compound alone without vaccine)
Type: in vivo, Mäuse
Conditions: per se, i.e. without added vaccine
Source text: Aus der Französischen Patentanmeldung Nr. 74 22 909 mit der Publikationsnummer 2 292 486 sind Muramylpeptide vom Typ der Verbindung N-Acetyl-muramyl-L-alanyl-D-isoglutamin ("MDP") bekannt. Diese Verbindungen sind als immunologische Adjuvanzien beschrieben, d.h. sie können in Mischung mit Impfstoffen dazu benützt werden, den Impferfolg zu verbessern. Eigene Untersuchungen, z.B. bei mit Influenza-Viren infizierten Mäusen, haben ergeben, dass N-Acetyl-muramyl-L-alanyl-D-isoglutamin per se, d.h. ohne Beimengung von Impfstoffen, bei der Prophylaxe und Therapie von Virusinfektionen unwirksam ist. Auch ist die Verwendbarkeit strukturell einfacher Muramylpeptide und ihrer Analogen gegen Virusinfektionen bisher nicht beschrieben.

## CC(=O)N[C@H]1C(O)O[C@H](CO)[C@@H](O)[C@@H]1O[C@H](C)C(=O)N[C@@H](C)C(=O)N[C@H](CCC(=O)O)C(N)=O (stereo partly drawn) [N-Acetyl-muramyl-L-alanyl-D-isoglutamin]
  Wirksamkeit bei der Prophylaxe und Therapie von Virusinfektionen: unwirksam

Reference: EP0192609A2, “Acylated hexose derivatives and method for their preparation” (CIBA-GEIGY AG, priority 1985, dated 1986)
